Results published in patent publication US6015805A, “17β-nitro-11β-arylisteroids and their derivatives having agonist or antagonist hormonal properties” (Research Triangle Research North Carolina, priority 1999, dated 2000).

Legend:
[1] = biological target: T1, glucocorticoid receptor (rGR) (Oryctolagus cuniculus, UniProt P59667); assay: Receptor binding (rabbit), glucocorticoid receptor; settings: relative to dexamethasone = 100
T1 construct: the source of the glucocorticoid receptor was the thymus of the estrogen-primed immature female rabbit; from tissue; host or cells: thymus of the estrogen-primed immature female rabbit
T1 sequence (P59667 1-772): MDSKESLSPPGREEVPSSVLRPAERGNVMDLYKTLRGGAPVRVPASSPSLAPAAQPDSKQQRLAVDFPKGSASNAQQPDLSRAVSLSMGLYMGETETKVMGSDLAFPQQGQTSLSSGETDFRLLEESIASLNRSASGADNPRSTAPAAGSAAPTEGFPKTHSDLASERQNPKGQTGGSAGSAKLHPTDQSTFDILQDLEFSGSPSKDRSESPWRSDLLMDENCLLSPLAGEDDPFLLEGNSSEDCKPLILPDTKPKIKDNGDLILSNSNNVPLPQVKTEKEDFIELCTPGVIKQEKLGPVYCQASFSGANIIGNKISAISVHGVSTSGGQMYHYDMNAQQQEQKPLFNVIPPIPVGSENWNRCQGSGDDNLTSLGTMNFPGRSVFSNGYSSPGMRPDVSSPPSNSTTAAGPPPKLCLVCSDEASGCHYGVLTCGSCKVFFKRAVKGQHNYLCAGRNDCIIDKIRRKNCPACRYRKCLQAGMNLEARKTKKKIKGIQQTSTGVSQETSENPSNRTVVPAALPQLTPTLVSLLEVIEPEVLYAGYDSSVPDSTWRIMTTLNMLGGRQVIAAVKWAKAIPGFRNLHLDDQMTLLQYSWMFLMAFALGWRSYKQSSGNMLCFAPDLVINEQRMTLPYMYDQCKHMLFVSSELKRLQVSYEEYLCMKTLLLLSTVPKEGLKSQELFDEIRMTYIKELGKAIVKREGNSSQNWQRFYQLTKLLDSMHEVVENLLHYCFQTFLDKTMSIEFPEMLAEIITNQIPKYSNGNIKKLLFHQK
Experimental: The affinity of the compounds for hormone receptors for progestins and glucocorticoids from rabbits was determined by standard procedures similar to those that have been described in C. E. Cook, et al., Human Reproduction, Volume 9, supplement 1, pp. 32-39 (1994). However, the source of the glucocorticoid receptor was the thymus of the estrogen-primed immature female rabbit. The affinity of the compounds for the human progesterone hormone receptor was determined by standard procedures similar to those that have been described in Horwitz, et al., Cell, 28: 633-42 (1982) and Mockus, et al., Endocrinology, 110: 1564-71 (1982). The receptor was obtained in cytosol from human T-47D breast cells and [^3 H]-R5020 was used as the radioligand. T47D cells (1 billion/mL) were homogenized in TEDG buffer (10 mM Tris, 1.5 mM EDTA, 1 mM dithiothreitol, 1 mM sodium molybdate, and 10% glycerol) using a Dounce pestle A, and the homogenate was centrifuged at 34,000×g for 1 hour. The supernatant was stored at -80° C. An aliquot of receptor preparation was combined with test compound, 0.4 nM [^3 H]-R5020, and TEDG buffer to a final volume of 150 ,μL and incubated for 4 hours at 4° C. in microtiter plates. At the end of incubation 40 μL 40% polyethylene glycol and 15 μL 1% human gamma globulin was added to the incubate and the contents of each well were harvested onto double thick B filter mats (Wallac LKB) using a TomTec harvester. A film of Meltilux scintillant wax was applied to the dried filter mats and the mats were counted in a scintillation counter to determine inhibition of [^3 H]-R5020 binding. Data are expressed as lC50 values, i.e., the concentration of compound that inhibits radioligand binding by 50%.

human T-47D breast cells = assay: T47D cell proliferation, antagonist format (inhibition of R5020-mediated [^3 H]-thymidine incorporation); assay type: cell-based; settings: for EC50: Homo sapiens, T47D, concentration which inhibits 0.15 nM R5020-mediated proliferation by 50%; for Cell Proliferation, Antagonist Format % inhibition: maximum % inhibition, 0.15 nM R5020
Experimental: Human T-47D breast cells grown in nutrient media were incubated with the standard progestin R5020 alone or with R5020 plus test compound and then assessed by standard procedures for proliferation using incorporation of [^3 H]-thymidine as the measurement. […] The maximum % inhibition (a measure of the efficacy of the compounds) is also given. In the agonist format of this assay the compounds were tested at concentrations ranging from 0.01 to 10 nM and the maximum % stimulation at any dose is listed in Table 3.

rabbits [2] = assay: McGinty assay (progestational activity, test compound alone); assay type: in vivo, rabbit; set-up: key: McPhail scoring scale for progestational endometrial response
Experimental: (§1) Progestational activity and antiprogestational activity were determined in rabbits by means of the McGinty test (test compound alone, procedure of McGinty et al., Endocrinology, 24: 829-832 (1939)) or anti-McGinty test (test compound plus progesterone, procedure of Tamara et al., Jpn. J. Fertil Steril 24: 48-81 (1979)). Results were scored according to McPhail (McPhail, J Physiol., 83: 146 (1934)). These are standard procedures known to those skilled in the art. The results of these assays are shown in Tables 4 (agonist activity) and 5 (antagonist activity). […] Physiol, 83: 146 (1934)).

rabbits [3] = assay: Anti-McGinty assay (antiprogestational activity, test compound plus progesterone); assay type: in vivo, rabbit; set-up: key to McPhail Index, Anti-McGinty Assay, Standard / McPhail Index, Anti-McGinty Assay (Antagonist): McPhail scoring scale for progestational endometrial response; settings: for McPhail Index, Anti-McGinty Assay (Antagonist): plus progesterone
Experimental: as §1

Compound | Relative Binding Affinity, rGR, Relative Affinity (Dexamethasone) [1] | EC50 (human T-47D breast cells) | Cell Proliferation, Antagonist Format % inhibition (human T-47D breast cells) | McPhail Index, McGinty Assay (Agonist) (rabbits [2]; dose 0.3 micrograms) | McPhail Index, McGinty Assay (Agonist) (rabbits [2]; dose 3 micrograms) | McPhail Index, McGinty Assay (Agonist) (rabbits [2]; dose 30 micrograms) | McPhail Index, Anti-McGinty Assay (Antagonist) (rabbits [3]; dose 0.3 micrograms) | McPhail Index, Anti-McGinty Assay (Antagonist) (rabbits [3]; dose 3 micrograms) | McPhail Index, Anti-McGinty Assay (Antagonist) (rabbits [3]; dose 30 micrograms) | agonist/antagonist profile (rabbits [3]; in words, McGinty and anti-McGinty tests) | antiprogestational activity in the anti-McGinty assay (rabbits [3]; in words)
CC#C[C@]1([N+](=O)[O-])CC[C@H]2[C@@H]3CCC4=CC(=O)CCC4=C3[C@@H](c3ccc(C(C)=O)cc3)C[C@@]21C [I 4-CH3 CO H O H --CC--CH3, 11β-(4-Acetylphenyl)-17β-nitro-17α-(1-propynyl)estra-4,9-dien-3-one] | 20 | 3.3 nM | 90% | 0.13 ± 0.12 | 1.33 ± 0.35 | 0.97 ± 0.75 | 2.173 ± 0.42 | 2.47 ± 0.15 | 0.13 ± 0.12 | mixed (agonist/antagonist) profile | –
CC1=[N+]([O-])C2(CC1)CCC1C3CCC4=CC(=O)CCC4=C3C(c3ccc(N(C)C)cc3)CC12C (stereo not drawn) [II 4-Me2 N H O H -- CH3, 3',4'-dihydro-11β-(4-(N,N-dimethylamino)phenyl)-5'-methyl-1'-oxo-spiro[estra-4,9-dien-17β,2'(2'H)-pyrrole]-3-one] | 2 | – | – | 0 ± 0 | 0 ± 0 | 0 ± 0 | 2.03 ± 0.14 | 1.9 ± 0.85 | 0 ± 0 | – | potent antiprogestin in the anti-McGinty assay
CC(=O)c1ccc([C@H]2C[C@@]3(C)[C@@H](CC[C@]3(CCCO)[N+](=O)[O-])[C@@H]3CCC4=CC(=O)CCC4=C32)cc1 [I 4-CH3 CO H O H --(CH2)3 OH, 11β-(4-Acetylphenyl)-17α-(3-hydroxypropyl)-17β-nitroestra-4,9-dien-3-one] | 3 | 175 nM | 96% | 0 ± 0 | 0 ± 0 | 0 ± 0 | 2.93 ± 0.12 | 2.43 ± 0.6 | 1.60 ± 0.66 | – | –
CC(=O)c1ccc([C@H]2C[C@@]3(C)[C@@H](CC[C@]3(/C=C/CO)[N+](=O)[O-])[C@@H]3CCC4=CC(=O)CCC4=C32)cc1 [I 4-CH3 CO H O H CH=CHCH2 OH, 11β-(4-acetylphenyl)-17α-(E-3-hydroxy-1-propenyl)-17β-nitroestra-4,9-dien-3-one] | 4 | 122 nM | 86% | 0 ± 0 | 0 ± 0 | 0 ± 0 | 1.53 ± 0.68 | 1.76 ± 0.45 | 2.3 ± 0.0 | – | –
CN(C)c1ccc([C@H]2C[C@@]3(C)[C@@H](CC[C@]3(CCCO)[N+](=O)[O-])[C@@H]3CCC4=CC(=O)CCC4=C32)cc1 [I 4-Me2 N H O H --(CH2)3 OH, 11β-[4-(N,N-Dimethylamino)phenyl]-17α-(3-hydroxypropyl)-17β-nitroestra-4,9-dien-3-one] | 74 | 12 nM | 89% | 0 ± 0 | 0 ± 0 | 0.03 ± 0.057 | 1.83 ± 0.48 | 1.87 ± 0.98 | 0.43 ± 0.31 | – | –
